Values after ≈ are worked out from the molar mass of the structure shown. Where two headings read alike, the source gives them in different places.
Assays:
[1] = test system: HL-60 (human promyelocytic leukemic) cells; assay: Cytotoxicity assay, HL-60 cells (XTT-microculture tetrazolium assay); format: cell-based; conditions: Homo sapiens; HL-60 cells, 72 hr incubation, XTT; read-out: Inhibition of cancer cell growth IC50, HL-60
Protocol: The camptothecin derivatives were evaluated for their cytotoxic effects on the growth of HL-60 (human promyelocytic leukemic), 833K (human teratocarcinoma) and DC-3F (hamster lung) cells in vitro. The cells were cultured in an initial density of […]. They were maintained in a 5% CO2 humidified atmosphere at 37° C. in RPMI-1640 media (GIBCO-BRL Grand Island, N.Y.) containing penicillin 100 μ/ml)/streptomycin (100 ^μg/ml) (GIBCO-BRL) and 10% heat inactivated fetal bovine serum. The assay was performed in duplicate in 96-well microplates. The cytotoxicity of the compounds toward HL-60 cells following 72 hr incubation was determined by XTT-microculture tetrazolium assay. Scudiero, D. A., et al., Cancer Res., 48, 4827 (1988), the disclosure of which is incorporated herein by reference. 2′, 3′-bis(-methoxy-4-nitro-5-sulfheny)-5-[(phenylamino)carbonyl]-2H-tetrazolium hydroxide (XTT) was prepared at 1 mg/ml in prewarmed (37° C.) medium without serum. Phenazine methosulfate (PMS) and fresh XTT were mixed together to obtain 0.075 mM PMS-XTT solution (25 ^μl of the stock 5 mM PMS was added per 5 ml of 1 mg/ml XTT). Fifty ^μl of this mixture was added to each well of the cell culture at the end of 72 hr incubation. After incubation at 37° C. for 4 hr., absorbance at 450 nm and 630 nm was measured with a microplate reader (EL340, Bio-Tek Instruments, Inc., Winooski, Vt.).

[2] = test system: 833K (human teratocarcinoma) cells; assay: Cytotoxicity assay, 833K cells (sulforhodamine B protein content); format: cell-based; conditions: Homo sapiens; 833K cells, sulforhodamine B; read-out: Inhibition of cancer cell growth IC50, 833K
Protocol: (§1) Cultures were fixed with trichloroacetic acid and then stained for 30 minutes with 0.4% sulforhodamine B dissolved in 1% acetic acid. Unbound dye was removed by acetic acid washes, and the protein-bound dye was extracted with an unbuffered Tris base [tris(hydroxy-methyl)aminomethan] for determination of absorbance at 570 nm in a 96-well microplate reader. The experiments were carried out in duplicate using five to six concentrations of the drugs tested. Data were analyzed via computer software.

[3] = test system: DC-3F (hamster lung) cells; assay: Cytotoxicity assay, DC-3F cells (sulforhodamine B protein content); format: cell-based; conditions: Mesocricetus auratus, DC3F; DC-3F cells, sulforhodamine B; read-out: Inhibition of cancer cell growth IC50, DC-3F
Protocol: as §1

Lewis lung carcinoma = assay: Antitumor activity in vivo, Lewis lung carcinoma; conditions: B6D2F1 mice, intraperitoneously twice daily for five days
Protocol: (§2) Antitumor activities of camptothecin derivatives were tested in B6D2F1 mice bearing sarcoma-180 or Lewis lung murine solid tumor. For S-180, 3×10^6 cells were innoculated subcutaneously on […]. Antitumor treatment started on day 1 intraperitoneously twice daily for five days. Tumor volumes on day 7 and day 14 were measured. Average tumor volumes were described as the ratio of treated versus untreated control (T/C). The control (treated with DMSO vehicle only) tumor volumes for day 7 and day 14 were 0.11 cm^3 and 0.61 cm^3, respectively. The T/C camptothecin is designated with “+++.” An increment or decrement of 10% as compared to the camptothecin T/C on day 14 at 2 mg/kg dosage is designated with increase or decrease of one “+” unit, respectively.
For Lewis lung carcinoma, tumor cells (1×10^6) were inoculated subcutaneously on day 0 and treatment started on day 1, intraperitoneously twice daily for five days. The grading of effects was as described above.

[4] = earlier studies; cited from earlier work
[5] = cited from earlier work
[6] = Kinetics of lactone ring opening in whole human blood (HPLC);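 note: hydrolytic opening of the camptothecin lactone ring followed over time by quantitative C18 reversed-phase HPLC in human whole blood at physiological temperature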
[7] = Kinetics of lactone ring opening in PBS buffer (HPLC); format: physicochemical; conditions: for % Lactone at Equilibrium: PBS; for half-life: buffer, pH 7.4
Protocol: Kinetics of Lactone Ring Opening. […] Mi and Burke (1994), supra.
FIG. 21 summarizes the stability of DB172 in phosphate buffered saline (PBS) buffer, pH 7.4, at physiological temperature. Shown in the figure are plots of lactone fraction as a function of time for DB172 at different concentrations. Drug was added to solution from a concentrated DMSO stock solution such that the volumes of DMSO were very small (less than 0.5%) relative to the volume of water. […] At the more dilute drug concentrations the drug hydrolyzes as previously observed for other camptothecins containing the ^α-hydroxy-^δ-lactone moiety.

[8] = test system: MDA-MB-435 tumorigenic metastatic human breast cancer cells; assay: cells; format: cell-based; conditions: Homo sapiens
Protocol: Cells. […] The cells were exposed to a range of drug concentrations for 72 hr exposure periods and then viability was assessed using a sulphorrhodamine B (SRB) assay. SRB assays were performed using a standard assay.
Sulphorhodamine B (SRB) assay was used. This assay measures the total protein levels in the living cells. Proteins from dead cells are lysed and removed in the washing step before TCA fixation. However, it is possible that cells in the early stage of death still have their membrane integrity and therefore retain the protein contents inside. As a result, the optical density at 490 nm can sometimes be overestimated and the cytotoxicity underestimated. […] The SRB assay is now a well regarded assay and was recently approved by NCI as a standard assay for anticancer drug screening.

[9] = target: human serum albumin (HSA) (Homo sapiens, UniProt P02768); conditions: PBS at pH 7.4; cited from earlier work
Sequence of human serum albumin (HSA) (P02768 25-609): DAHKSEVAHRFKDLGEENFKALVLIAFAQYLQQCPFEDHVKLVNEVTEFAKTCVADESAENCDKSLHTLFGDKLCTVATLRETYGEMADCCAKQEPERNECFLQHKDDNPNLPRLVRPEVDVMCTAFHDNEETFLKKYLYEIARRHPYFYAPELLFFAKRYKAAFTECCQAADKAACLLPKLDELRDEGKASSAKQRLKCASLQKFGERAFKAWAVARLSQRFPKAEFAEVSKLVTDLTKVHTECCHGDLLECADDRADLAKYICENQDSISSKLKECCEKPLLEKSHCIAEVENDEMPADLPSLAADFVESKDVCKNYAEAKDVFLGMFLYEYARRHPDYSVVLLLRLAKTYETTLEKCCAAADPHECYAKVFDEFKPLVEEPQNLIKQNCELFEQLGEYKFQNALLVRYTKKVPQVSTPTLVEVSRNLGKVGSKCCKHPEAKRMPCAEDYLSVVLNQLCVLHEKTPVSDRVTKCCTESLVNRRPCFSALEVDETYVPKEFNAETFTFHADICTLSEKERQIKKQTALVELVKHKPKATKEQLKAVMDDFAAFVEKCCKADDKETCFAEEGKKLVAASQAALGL

in vitro = conditions: human
[10] = whole human blood, earlier studies; cited from earlier work
[11] = Kinetics of lactone ring opening in PBS containing HSA (HPLC); conditions: HSA (PBS containing 30 mg/ml HSA)
[12] = Equilibrium binding to DMPC small unilamellar vesicles (fluorescence anisotropy titration); conditions: for KDMPC overall association constant: PBS buffer at PH 7.4 and 37° C.
[13] = Equilibrium binding to DMPG small unilamellar vesicles (fluorescence anisotropy titration); conditions: for KDMPG overall association constant: PBS buffer at PH 7.4 and 37° C.
[14] = Kinetics of lactone ring opening in RBC (HPLC); format: in vitro ADME, human; conditions: RBC
From the text: Kinetics of Lactone Ring Opening. […] Mi and Burke (1994), supra. […] Louis, Mo.) was used.

[15] = Blood levels of DB-67 after intrastomach dosing; format: in vivo; conditions: 5 mg/kg intrastomach injection in DMSO; samples at 30 min, 1 hr, 2 hr, 4 hr
Protocol: To evaluate the blood levels achieved following dosing at 5 mg/kg, four animals were given 0.1 ml intrastomach injections of DB-67 dissolved in DMSO. The stock contained DB67 at a concentration of 1.6 mg/ml. At time points of 30 min, 1 hr, 2 hr, and 4 hr, 1 ml samples of blood were drawn and collected by heart puncturing. The samples were centrifuged for 3 min and stored frozen until analysis was carried out.

[16] = Self-association in aqueous solution (fluorescence intensity with time); format: physicochemical; conditions: lactone drug forms added to solution, time=0
Protocol: FIG. 22 summarizes the dependence of the fluorescence intensity of DB172 as a function of time and pH. In these experiments DB172 is added to solution as the lactone form. At low pH where the drug remains in the lactone form, the change in intensity with time is the lowest. At pH 10, where the conditions are such that the lactone more readily hydrolyzes and forms carboxylate, a significant change in fluorescence intensity is observed. It appears that a pH 10 nonfluorescent micellular aggregates composed of lactone disassemble and form open-ring carboxylate forms that tend to exist in solution as monomeric fluorescent species.
FIG. 23 explores the fluorescence intensity of DB172 as a function of concentration. Following the addition of low concentration of lactone drug to solution, the change in fluorescence signal is the greatest whereas at high drug concentration (10 ^μM) the fluorescence intensity changes are minimal. It is believed that a low concentration the micellular aggregates of DB172 displaying reduced fluorescence can disassemble and form fluorescent carboxylate species, but at higher drug concentration the equilibrium favors that the agent remains in the aggregated or reduced fluorescence state. […] Once again this decrease in fluorescence that occurs at reduced pH appear to be due to the formation of lactone aggregates of reduced fluorescence quantum yield.
FIGS. 21 through 24 are consistent with the unusual ability of DB172 lactone to self-associate and form micelles at micromolar drug concentrations. The micellular DB172 aggregates display a reduced fluorescence. If conditions allow for hydrolysis to occur such that carboxylate forms, there is an increase in the fluorescence intensity of the sample. FIG. 25 compares the relative change in the fluorescence emission of a sample following addition of lactone drug forms to solution. In these experiments the values for each drug are normalized to a value of 1 at time equals to zero, and the ability of the various analogs to disassociate in the event the drugs are aggregated at time=0 is monitored with time. […]

[17] = test system: glioma cells (U87, A172, SG388, T98G, LN-Z308); assay: Inhibition of cell proliferation in glioma cell lines; format: cell-based; conditions: several lines of glioma cells (U87, A172, SG388, T98G, LN-Z308), read-out: median effective concentrations, inhibiting cell proliferation
sarcoma-180 = assay: Antitumor activity in vivo, sarcoma-180; conditions: B6D2F1 mice, intraperitoneously twice daily for five days, several equivalent doses
Protocol: as §2

[18] = human
[19] = Whole Blood, physiological temperature
[20] = human plasma, pH 7.4 and 37° C.
[21] = MDA-MB-435 cells, 72 hrs exposure, absence of HSA, read-out: IC50 (w/o HSA)

| SMILES | IC50 [1] [nM] | IC50 [2] [nM] | IC50 [3] [nM] | % Lactone at Equilibrium [6, 19] [%] | % Lactone at Equilibrium [7] | half-life (in vitro; whole blood) [min] | % Lactone at Equilibrium [11] | t1/2 [11] [min] | KDMPC overall association constant [12] [M⁻¹] | KDMPG overall association constant [13] [M⁻¹] | IC50 [8, 21] [nM] | K value for DMPC, fold greater than camptothecin ([12]; relative to camptothecin) [fold] | half-life [7] [min] | half-life (in vitro; blood) [min] | also measured |
| --- | --- | --- | --- | --- | --- | --- | --- | --- | --- | --- | --- | --- | --- | --- | --- |
| CCC1(O)C(=O)OCc2c1cc1n(c2=O)Cc2c-1nc1cc(F)ccc1c2[Si](C)(C)C (stereo in doubt) [Example 7, (20S)-11-fluoro-7-trimethylsilylcamptothecin] | 0.75 | 0.92 | 2 | – | – | – | – | – | – | – | – | – | – | – | similar antitumor effect (tumor volume reduction) to camptothecin at x-fold lower doses (Lewis lung carcinoma): 4 fold |
| CC[C@@]1(O)C(=O)OCc2c1cc1n(c2=O)Cc2cc3c(N)cccc3nc2-1 [9-aminocamptothecin] | – | – | – | < 0.3 | – | – | – | – | – | – | – | – | – | – | fraction hydrolyzed in PBS solution containing HSA [4]: > 97%; fraction converted to carboxylate in plasma ([5]; plasma): > 99.5% |
| CC[C@@]1(O)C(=O)OCc2c1cc1n(c2=O)Cc2cc3ccccc3nc2-1 [CPT, (20S)-Camptothecin, reference compound] | 5 | 10 | 6 to 9 | – | 17 +/− 2.0% | 21.6 | <0.5% | 11.9 ± 0.3 | 100 | 100 | – | – | – | – | IC50 ([8]; MDA-MB-435, 72 h, read-out: IC50 (w/o HSA)): 8 nM; affinity of HSA for the carboxylate form, fold higher than for the lactone form [9]: 200 fold; t1/2 of lactone in whole blood [10]: 22 min; % lactone at equilibrium in human plasma [5, 20]: 0.2%; t1/2 of lactone opening in human plasma [5, 20]: 11 min; % Lactone at Equilibrium ([6]; Whole Blood, physiological temperature, listed as Camptothecin): 5.3 +/− 0.6%; % Lactone at Equilibrium ([6]; Whole Blood, physiological temperature, listed as camptothecin): 5.3%; lactone level at equilibrium in whole blood, fold greater than 9-aminocamptothecin ([6]; relative to 9-aminocamptothecin): approximately 10 fold |
| CC[C@@]1(O)C(=O)OCc2c1cc1n(c2=O)Cc2c-1nc1ccc(O)cc1c2[Si](C)(C)C(C)(C)C [DB-67, (20S)10-Hydroxy-7-tert-butyldimethylsilylcamptothecin] | – | – | – | 30 | 10.2 +/− 0.3% | 130 | 10.5 +/− 2.0% | 119.0 ± 5.3 | 2700 | 2800 | 7 | 27 | – | – | % Lactone at Equilibrium [14]: 41.4 +/− 0.7%; t1/2 [14]: 51.4 ± 0.5 min; IC50 ([8]; MDA-MB-435 cells, 72 hrs exposure, presence of 1 mg/ml HSA, read-out: IC50 (w/HSA)): 22 nM; DB67 levels in blood after oral dosage [15]: > 40 ng/mL; self-association / aggregation state in solution [16]: much more likely to be found in solution as monomeric drug relative to DB172; t1/2 [6, 19]: 133.0 ± 15.9 min; % Lactone at Equilibrium ([6]; Whole Blood, physiological temperature, listed as DB 67): 30.5 +/− 1.9%; times more lipophilic than camptothecin ([12]; relative to camptothecin): 25 times; K value for DMPG, fold greater than camptothecin ([13]; relative to camptothecin): 28 fold |
| CC[C@@]1(O)C(=O)OCc2c1cc1n(c2=O)Cc2c-1nc1ccc(O)cc1c2CC[Si](C)(C)C [DB-174, (20S)-10-Hydroxy-7-[(2-trimethylsilyl)ethyl]camptothecin] | – | – | – | – | 13.7 +/− 0.7% | – | – | – | 9000 | 6600 | 12 | ~90 | 29.7 | 40.3 | EC50 [17]: 0.01 to 0.1 µg/mL (≈ 0.0215 to 0.215 µM) |
| CC[C@@]1(O)C(=O)OCc2c1cc1n(c2=O)Cc2c-1nc1ccccc1c2[Si](C)(C)C [Example 1, (20S)-7-trimethylsilylcamptothecin] | 3.8 | 5.6 | 4.2 | – | 11.1 +/− 0.1% | – | – | – | – | – | – | – | 34.6 | 54.6 | activity against sarcoma 180 compared with camptothecin (tumor volume reduction) (sarcoma-180): better activity than camptothecin; % Lactone at Equilibrium [18]: 23.7 +/− 0.0% |

From patent publication US6743917B2, “Camptothecin analogs and methods of preparation thereof” (University of Pittsburgh, priority 1993, dated 2004)
